Four compounds from paper PMC11378297, “Discovery and Profiling of New Multimodal Phenylglycinamide Derivatives as Potent Antiseizure and Antinociceptive Drug Candidates” (ACS Chemical Neuroscience, 2024) can be followed below.

As usually defined, the inhibition is the change of the read-out against control, counted positive when it falls. By ED50 is commonly meant the midpoint of the dose-response relation. A high value points to a need for a large dose.

Read-outs that look alike come from different tables or passages of the source.

Data set [1] concerns the target T1, Voltage-Gated Sodium channel hNav1.7 (Homo sapiens, UniProt Q15858).
T1 construct: Eurofins Discovery (St. Charles, MO, USA)
Nature of the data set: human sodium ion channel cell based automated patch clamp assay, hNav1.7. On the technique in general: In patch-clamp work, channel activity is measured electrically.
Text: Human sodium ion channels cell based automated patch clamp assay
Human sodium ion channels cell based automated patch clamp assays: sodium channels exist in, a) a resting or closed state at -120 mV, b) a transient open state that inactivates to c) inactivated state at -10 mV. Sodium current inhibition within 1-2 ms of channel opening at 0 mV is open channel inhibition (pulse 1). In order to completely inactivate the sodium channels and facilitate inactivated state-dependent binding of the drug, the channels were kept at open state ( -10 mV) longer (pulsed for 500 ms) and then stepped back to -120 mV for 10 ms to recover from inactivation into resting or closed
open) before stepping to -10 mV for 50 ms (pulse 2) to mea sure sodium channels that are available to open. […] Pulse 1 and 2 are used to investigate drug binding to the open state and inactivated state of the Na channels, respectively. Each concentration of compound is applied for 5 minutes.
Voltage-Gated Sodium channel hNav1.1

Data set [2] deals with capsaicin-induced pain, mice. The data set can be described thus: capsaicin-induced pain test. It is filed as in vivo. As to conditions: Mus musculus, ip, 30 min before capsaicin.
A further data set has as its system HepG2 cell line. Nature of the data set: hepatotoxicity, HepG2 cell viability. The class given is cell-based, human. The settings on record: 25 μM, 72 h of incubation (Figure 11).
Data set [3] has as its system PTZ-induced kindling, mice. The data set can be described thus: PTZ-induced kindling model. The class given is in vivo, mouse. On the procedure: We investigated the impact of lead compound (R)-32 on PTZ-induced kindling in mice to further assess its antiseizure potential (Figure 3). […] The PTZ-induced kindling model is widely recognized as a useful method to induce chronic increase in susceptibility to epileptic seizures.
Figure 3 Effect of repeated treatment with (R)-32 in PTZ-induced kindling model in mice. […] Data are presented as means of seizure severity (n = 10–15 animals). Statistical significance was evaluated by a mixed effects model for repeated measures followed by Tukey’s post hoc test: **p < 0.01, […] vs control group (GraphPad Prism 8.4.3).
The procedure was performed as described in detail in our previous studies.[88],[89] […] Seizures were induced three times a week by i.p. administration of PTZ at a subconvulsive dose of 40 mg/kg. […] The seizure severity was scored using the modified Racine’s scale. […] The locomotor activity test, the elevated plus maze test, and the FST were performed 24 h after the last PTZ injection, according to the methods described in detail elsewhere. After completion of behavioral tests, animals were sacrificed. Hippocampi and cortices were dissected from the brains, frozen, and stored at −80 °C until assay. Following each PTZ injection, the mean seizure severity scores were determined for each experimental group. A mixed effects model for repeated measurements was used for analysis, along with Tukey’s post hoc test. The percentage of fully kindled mice was compared using Fisher’s exact probability test.

Data set [4] deals with REDs in the medial entorhinal cortex of brain slices from kainate-treated rats. Nature of the data set: spontaneous recurrent epileptiform discharges (REDs) in brain slices of KA-rats. The arrangement: species or system rat. As to conditions: 40, 80 and 120 μM, 20 min bath exposure. On the procedure:
The effects of (R)-32 on spontaneous recurrent epileptiform discharges (REDs) recorded in the medial entorhinal cortex of a brain slices obtained from rats that had previously experienced kainate-induced status epilepticus (KA-rats) were evaluated at 40, 80, and 120 μM. […] Finally, the average duration, frequency, and amplitude of REDs after a 20 min exposure, and normalized to baseline measurements, is illustrated in Figure 4C for 40, 80, and 120 μM (R)-32. […] Accordingly, no EC50 quantifications were performed.
Figure 4 (R)-32 fails to affect REDs (recurrent epileptiform discharges) at any concentrations tested. (A) Representative traces of REDs recorded before (baseline), in the presence of 80 μM (R)-32, and 20 min after washout. […]
Evaluation of spontaneous recurrent electrographic discharges (REDs) from the medial entorhinal cortex in acute brain slices obtained from Sprague–Dawley rats that had previously experienced kainate-induced status epilepticus (KA-rats) were performed as previously described (West et al., 2018).[90] […] Extracellular field excitatory postsynaptic potentials (fEPSPs) were then recorded from layer II of the medial entorhinal cortex from 8 brain slices simultaneously. Spontaneous REDs were recorded for a 20 min baseline period. […] Data were acquired using pClamp 10.4.2 and analyzed using the included clampfit 10.4 software. […]

Setting [5] is: hNav1.7, Pulse 1 (open state), read-out: % Inhibition Mean.
Setting [6] is: hNav1.7, Pulse 1 (open state), read-out: % Inhibition n1.
[7] abbreviates: hNav1.7, Pulse 1 (open state), read-out: % Inhibition n2.
[8] abbreviates: hNav1.7, Pulse 2 (inactivated state), read-out: % Inhibition Mean.
Setting [9] is: hNav1.7, Pulse 2 (inactivated state), read-out: % Inhibition n1.
Where [10] appears, read: hNav1.7, Pulse 2 (inactivated state), read-out: % Inhibition n2.

T1 sequence (Q15858 whole entry): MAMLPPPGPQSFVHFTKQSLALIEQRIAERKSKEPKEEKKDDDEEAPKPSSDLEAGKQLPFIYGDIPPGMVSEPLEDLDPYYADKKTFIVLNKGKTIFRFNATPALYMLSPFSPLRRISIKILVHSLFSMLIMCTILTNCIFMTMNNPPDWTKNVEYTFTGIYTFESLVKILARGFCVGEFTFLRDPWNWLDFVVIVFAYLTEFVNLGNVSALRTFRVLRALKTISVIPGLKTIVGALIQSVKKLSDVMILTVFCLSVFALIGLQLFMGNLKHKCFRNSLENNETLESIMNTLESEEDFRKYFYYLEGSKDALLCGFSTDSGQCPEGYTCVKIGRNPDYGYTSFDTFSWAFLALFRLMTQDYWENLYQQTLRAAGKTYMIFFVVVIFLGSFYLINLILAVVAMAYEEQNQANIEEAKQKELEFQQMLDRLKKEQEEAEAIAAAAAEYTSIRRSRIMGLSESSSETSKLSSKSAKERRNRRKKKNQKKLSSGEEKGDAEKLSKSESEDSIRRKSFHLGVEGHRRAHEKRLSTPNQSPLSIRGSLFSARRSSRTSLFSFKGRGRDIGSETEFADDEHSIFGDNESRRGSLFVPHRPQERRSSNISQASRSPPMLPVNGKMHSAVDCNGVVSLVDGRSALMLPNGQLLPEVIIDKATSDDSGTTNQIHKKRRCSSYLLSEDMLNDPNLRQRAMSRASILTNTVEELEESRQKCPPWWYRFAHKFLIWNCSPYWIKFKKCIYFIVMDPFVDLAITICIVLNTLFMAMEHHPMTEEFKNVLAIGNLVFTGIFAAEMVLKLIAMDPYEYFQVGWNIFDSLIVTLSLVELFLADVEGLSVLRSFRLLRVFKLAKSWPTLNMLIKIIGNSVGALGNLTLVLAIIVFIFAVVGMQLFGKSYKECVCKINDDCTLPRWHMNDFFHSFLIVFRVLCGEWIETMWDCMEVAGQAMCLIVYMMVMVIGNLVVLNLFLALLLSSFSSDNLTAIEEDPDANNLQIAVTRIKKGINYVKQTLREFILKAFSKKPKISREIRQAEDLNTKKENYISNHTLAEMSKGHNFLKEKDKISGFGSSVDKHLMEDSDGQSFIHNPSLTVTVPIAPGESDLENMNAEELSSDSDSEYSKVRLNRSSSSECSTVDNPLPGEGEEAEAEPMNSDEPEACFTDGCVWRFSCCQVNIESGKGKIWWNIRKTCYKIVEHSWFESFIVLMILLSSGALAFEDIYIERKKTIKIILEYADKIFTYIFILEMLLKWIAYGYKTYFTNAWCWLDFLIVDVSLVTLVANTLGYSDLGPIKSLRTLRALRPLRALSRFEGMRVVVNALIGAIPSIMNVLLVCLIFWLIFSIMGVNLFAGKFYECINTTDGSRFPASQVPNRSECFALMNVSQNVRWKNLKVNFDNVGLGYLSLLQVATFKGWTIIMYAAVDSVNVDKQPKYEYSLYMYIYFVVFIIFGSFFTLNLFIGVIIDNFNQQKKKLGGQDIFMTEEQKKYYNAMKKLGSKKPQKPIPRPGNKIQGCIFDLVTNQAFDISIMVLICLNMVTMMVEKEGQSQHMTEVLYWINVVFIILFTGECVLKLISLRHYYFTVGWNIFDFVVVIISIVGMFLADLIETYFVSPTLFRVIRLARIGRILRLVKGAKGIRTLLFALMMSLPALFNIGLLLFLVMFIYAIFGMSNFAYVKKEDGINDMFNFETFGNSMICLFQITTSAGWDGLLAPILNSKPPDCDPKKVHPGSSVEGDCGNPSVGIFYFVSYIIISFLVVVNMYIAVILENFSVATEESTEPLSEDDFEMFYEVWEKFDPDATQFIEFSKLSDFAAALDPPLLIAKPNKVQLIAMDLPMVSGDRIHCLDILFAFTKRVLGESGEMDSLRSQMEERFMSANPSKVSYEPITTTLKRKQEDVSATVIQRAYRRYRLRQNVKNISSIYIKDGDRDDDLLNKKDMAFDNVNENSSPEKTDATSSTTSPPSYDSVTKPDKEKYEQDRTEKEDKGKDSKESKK
Experimental for HepG2 cell line: The hepatotoxicity potential was assessed with the HepG2 cell line and the reference cytostatic drug doxorubicin.
The results are presented as means + SD. Statistical significance was evaluated by one-way ANOVA, followed by Bonferroni’s multiple comparison post hoc test (Graph Pad Prism 8.0.1 software, San Diego, CA, USA): *p < 0.05, ***p < 0.001, ****p < 0.0001 vs negative control (DMSO 1% in growth media).

As for `CCCCNc1ccc(C(=O)OCCN(C)C)cc1` [Tetracaine, reference compound], the inhibition at 3 µM in data set [1] (setting [5]) was determined as 8.82%; in data set [1] (setting [6]), 11.3%; in data set [1] (setting [7]), 6.36%; in data set [1] (setting [8]), 47.5%; in data set [1] (setting [9]) it was 45.9%; in data set [1] (setting [10]), 49.1%. For the same compound, the inhibition at 30 µM was determined as 27.6% in data set [1] (setting [5]); 27.5% in data set [1] (setting [6]); 27.8% in data set [1] (setting [7]); 98.6% in data set [1] (setting [8]); 98% in data set [1] (setting [9]); 99.2% in data set [1] (setting [10]). The inhibition at 300 µM in data set [1] (setting [5]) stood at 95.1%; in data set [1] (setting [6]) it was 94.6%; in data set [1] (setting [7]), 95.6%; in data set [1] (setting [8]), 101%; in data set [1] (setting [9]), 101%; in data set [1] (setting [10]), 102%.

On to `CC(=O)N[C@@H](C(=O)N1CCN(c2cccc(C(F)(F)F)c2)CC1)c1ccccc1` [(R)-31, (R)-N-(2-Oxo-1-phenyl-2-(4-(3-(trifluoromethyl)phenyl)piperazin-1-yl)ethyl)acetamide], for which the 50% effect level in data set [2] (ED50) was put at a dose of 53.9 mg/kg.

In the case of `CC(=O)N[C@@H](C(=O)N1CCN(c2cccc(SC(F)(F)F)c2)CC1)c1ccccc1` [(R)-33, (R)-N-(2-Oxo-1-phenyl-2-(4-(3-((trifluoromethyl)thio)phenyl)piperazin-1-yl)ethyl)acetamide], the HepG2 cell viability result in the data set with HepG2 cell line is recorded as “reduced slightly, but statistically significant cell viability”.

With `CC(=O)N[C@@H](C(=O)N1CCN(c2cccc(OC(F)(F)F)c2)CC1)c1ccccc1` [(R)-32, (R)-N-(2-Oxo-1-phenyl-2-(4-(3-(trifluoromethoxy)phenyl)piperazin-1-yl)ethyl)acetamide], the “effect on kindling development” value in data set [3] (20 mg/kg i.p. repeatedly every 24 h) and in data set [3] (40 mg/kg i.p. repeatedly every 24 h) was “did not significantly affect kindling development” in each case. Also, in data set [3] (80 mg/kg i.p. repeatedly, p < 0.01 after 19th PTZ injection), the “effect on kindling progression” value is “slightly suppressed kindling progression”. For the same compound, the “average seizure severity score after the first PTZ injection” value in data set [3] (80 mg/kg, mean ± SD) came out at 0.87 ± 0.35. In addition, in data set [3] (80 mg/kg, mean ± SD), the “average seizure severity score after the last PTZ injection” value was determined as 2.65 ± 1.28. For the same compound, the “effect on RED parameters (duration, frequency, amplitude)” value in data set [4] was “failed to significantly affect”. Besides, the ED50 in data set [2] amounted to 20.2 mg/kg. For the same compound, the inhibition at 1 µM in data set [1] (setting [5]) is -5.74%; in data set [1] (setting [6]), -4.13%; in data set [1] (setting [7]), -7.35%; in data set [1] (setting [8]) it was -3.08%; in data set [1] (setting [9]) it was -3.09%; in data set [1] (setting [10]) it was -3.07%. Also, the inhibition at 10 µM in data set [1] (setting [5]) is 6.15%; in data set [1] (setting [6]), -0.03%; in data set [1] (setting [7]) it was 12.3%; in data set [1] (setting [8]), 37.8%; in data set [1] (setting [9]), 35.3%; in data set [1] (setting [10]), 40.4%. Further, the inhibition at 100 µM in data set [1] (setting [5]) is 22.9%; in data set [1] (setting [6]) it was 19.2%; in data set [1] (setting [7]), 26.5%; in data set [1] (setting [8]), 98.4%; in data set [1] (setting [9]) it was 98.7%; in data set [1] (setting [10]), 98%.
